The values below come from patent publication US6486146B1, “Cancer accelerants and phase synchronization methods” (priority 2000, dated 2002).

Like-named read-outs stand apart in the source and are kept apart here.

One series relates to colon cancer. Particulars: cited from earlier work.
Another series deals with colon cancer tumor. Kind of series: Mathematical model of tumor size until lethal burden using 32% kill rate. Conditions: at both doses (125 mg and 100 mg), inferred from fit of the model to observed survival.
In series [1] the test system is gastrointestinal epithelial cells. As to the kind of experiment: Expected kill of gastrointestinal epithelium from terminal half life versus cell cycle time.
The target in a further series is T1, topoisomerase I (Homo sapiens, UniProt P11387).
T1 sequence (P11387 1-765): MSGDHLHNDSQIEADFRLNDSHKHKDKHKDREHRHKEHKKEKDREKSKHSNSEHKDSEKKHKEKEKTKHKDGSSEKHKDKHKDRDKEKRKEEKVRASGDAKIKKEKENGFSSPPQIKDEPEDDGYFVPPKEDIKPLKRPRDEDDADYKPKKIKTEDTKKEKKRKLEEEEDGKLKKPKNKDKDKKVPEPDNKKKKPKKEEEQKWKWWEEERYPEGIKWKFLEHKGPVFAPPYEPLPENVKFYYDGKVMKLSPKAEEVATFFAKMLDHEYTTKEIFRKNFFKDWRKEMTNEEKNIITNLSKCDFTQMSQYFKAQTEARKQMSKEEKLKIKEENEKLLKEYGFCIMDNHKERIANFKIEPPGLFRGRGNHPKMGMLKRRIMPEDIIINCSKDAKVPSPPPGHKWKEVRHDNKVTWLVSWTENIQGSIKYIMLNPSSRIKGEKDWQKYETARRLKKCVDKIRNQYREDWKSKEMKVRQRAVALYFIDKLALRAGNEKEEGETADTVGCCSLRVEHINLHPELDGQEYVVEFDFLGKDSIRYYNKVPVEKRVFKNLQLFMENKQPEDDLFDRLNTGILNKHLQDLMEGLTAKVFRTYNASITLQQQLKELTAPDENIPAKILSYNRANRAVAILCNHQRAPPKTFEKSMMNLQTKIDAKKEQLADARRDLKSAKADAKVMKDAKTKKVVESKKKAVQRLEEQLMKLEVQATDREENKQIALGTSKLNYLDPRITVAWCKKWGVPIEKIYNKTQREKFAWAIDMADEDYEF
Conditions: SN-38 versus irinotecan; cited from earlier work.

Series [2] concerns metastatic breast cancer that possesses estrogen receptors. As to the kind of experiment: Example 4 patient, prior art doxorubicin regimen, tumor size. Format: in vivo. Conditions: 30 mg/m2 once per week for 4 weeks, 3 cycles; illustrative patient example.

`CCc1c2c(nc3ccc(OC(=O)N4CCC(N5CCCCC5)CC4)cc13)-c1cc3c(c(=O)n1C2)COC(=O)[C@]3(O)CC` [Camptosar, irinotecan]: the median survival observed in the series with colon cancer (100 mg once every 7 days for 4 weeks, 2 weeks off, 2 cycles, months x 30 days) is 279 days; in the series with colon cancer (100 mg regimen), 9.3 mo; in the series with colon cancer (125 mg once every 7 days for 4 weeks, 2 weeks off, 3 cycles, months x 30 days), 321 days; in the series on colon cancer (125 mg regimen), 10.7 mo. Further, the S-Phase kill rate with colon cancer tumor is listed as ~100%. Further, the “mortality to gastrointestinal epithelium” value in series [1] (present invention LD 60) stood at 65%. The gastrointestinal epithelium killed in series [1] (prior art LD 125 mg) was 95%.

In the case of `CCc1c2c(nc3ccc(O)cc13)-c1cc3c(c(=O)n1C2)COC(=O)[C@]3(O)CC` [SN-38], the “potency as a topoisomerase inhibitor relative to irinotecan” value on topoisomerase I is ~1,000 times.

In the case of `COc1cccc2c1C(=O)c1c(O)c3c(c(O)c1C2=O)C[C@@](O)(C(=O)CO)C[C@@H]3O[C@H]1C[C@H](N)[C@H](O)[C@H](C)O1` [doxorubicin], the “reduction in tumor size after the regimen” value in series [2] was found to be 32%.
